Test results from patent US20150025052A1, “Compositions and Methods for Inhibiting HSP90/HSP70 Machinery” (Georgia Regents Research Institute, Inc., priority 2013, published 2015).

How the values were obtained:
LNCaP cells = type: cell-based
MCF7 cells [1] = tested on: MCF7 cells
NCI 60-cell panel = conditions: read-out: Growth Inhibition of 50% (GI50); cited from earlier work
[2] = tested on: Hsp90 derived from transformed cells overexpressing HER-2 (BT474, N87, SKOV3 and SKBR3); conditions: cited from earlier work
[3] = tested on: Hsp90/Hsp70 chaperoning machinery (rabbit reticulocyte lysate) with progesterone receptor; assay: Progesterone receptor (PR) reconstitution assay: recovery of hormone binding activity of PR; type: biochemical
From the text: To identify small molecule inhibitors of molecular chaperones, a high-throughput functional screen was developed based on the isoform A of progesterone receptor (PRA), a well-established physiological client of Hsp90, and using rabbit reticulocyte lysate (RRL) as a source of molecular chaperones. This comprehensive functional assay measured the recovery of hormone binding activity of PRA after mild heat treatment. Purified PR was adsorbed onto PR22 antibody bound to protein A that was absorbed on 96 well plates. 100 μl of RRL lysate and ATP regeneration system was added to each well. After incubation for 30 min at 30° C., 0.1 μM [3H]-progesterone (American Radiolabeled Chemicals, Inc #ART 0063) was added. Plates were incubated on ice for 2 h at 4° C. Complexes were then washed three times with 200 μl of reaction buffer (20 mM Tris/HCl, pH 7.5, 5 mM MgCl2, 2 mM DTT, 0.01% NP-40, 50 mM KCl and 5 mM ATP) and assessed for bound progesterone by liquid scintillation using PerkinElmer Microbeta plate reader.
PR complexes were reconstituted on a 96-well plate; the first eight samples contain the following internal controls: 1. Protein A alone, 2. Protein A+PR22, 3. Protein A+PR22+PR, 4. Protein A+PR22+PR+RRL, 5. Protein A+PR22+PR+RRL+17-AAG (20 μM), 6. Protein A+PR22+PR+RRL+Myrecetin (20 μM), 7. Protein A+PR22+PR+RRL+geldanamycin (20 μM), 8. Protein A+PR22+PR+RRL+gedunin (20 μM). […]

[4] = tested on: Hsp90 client proteins (Her2, CDK4, ChK1, Raf-A, Akt, ILK, GR, PR, AR); assay: Western blotting of Hsp90 client proteins in cancer cells; type: cell-based; conditions: 50, 100, 200 μM capsaicin; HeLa, MCF7, LNCaP cells
Experimental: (§1) FIGS. 2A-2F are autoradiographs of composite images of Western immuno-staining blots. […] FIGS. 2D-E show the Hsp90 client proteins HER2, GR, PRB, CDK4, Chk1, Raf-A, Akt and ILK, and the chaperones Hsp70, 2;3, Hsc70, HOP, HDJ2 (Hsp40), p23, Hsp90α and Hsp90β in the presence of DMSO, 2.5 μM 17AAG or 50, 100 or 200 μM capsaicin in HeLa cells (FIG. 2D) or MCF7 cells (FIG. 2E), respectively. In all blots, 2.5 μM 17-AAG was used as a positive control for cellular degradation of several kinases and hormone receptor clients of Hsp90, Beta actin (β-actin) was used a loading control. FIG. 2F is an autoradiograph of a Western blot showing capsaicin altered Hsp70 multi-chaperone complexes in cells. LNCaP cells were treated with 200 μM capsaicin for 6 h and then lysed, and Hsp70 complexes were pulled down using an antibody against Hsp70 on Protein A-Sepharose beads. Western blotting was performed for Hsp70, Hsp40 (HDJ-2), and Hsp90β. Capsaicin reduced Hsp40 and Hsp90 binding to Hsp70. Mouse IgG was used as a control.
(§2) Cells were lysed with buffer A (10 mM Tris pH 8.0, 137 mM NaCl, 10% glycerol, 1% Nonident P-40) supplemented with protease inhibitor cocktail (Roche Applied Science catalog no. 11 836 170 001) on ice for 30 minutes, shaking every 5 minutes. Lysate was centrifuged at 16,000×g for 10 minutes. 10 μg of clarified lysates were run on SDS-PAGE (10% gel) and transferred to PVDF membrane. […]

[5] = tested on: Hsp90α, Hsp90β, Hsp40, p23 and Hop; assay: Western blotting of molecular chaperones in cancer cells; type: cell-based; conditions: 50, 100, 200 μM capsaicin
Experimental: as §1, §2

[6] = tested on: Hsp70 (inducible form, Hsp70i); assay: Western blotting of Hsp70 in cancer cells; type: cell-based
[7] = tested on: Hsc70 (constitutive form); assay: Western blotting of Hsc70 in cancer cells; type: cell-based; conditions: HeLa and MCF7 cells
Experimental: as §1, §2

[8] = tested on: cancer cells (LNCaP, MCF7, HepG2, HeLa); assay: Colony formation assay; type: cell-based; conditions: 200 μM capsaicin for 24 h, 15 days growth
From the text: FIG. 3A is a line graph of absorbance at 495 nm (arbitrary units) versus Capsaicin dose (μM) of Hs578Bst and MCF7 cells treated with the indicated dose of capsaicin. FIG. 3B is a line graph of absorbance at 495 nm versus time of capsaicin treatment (hours) of Hs578Bst cells and MCF7 cells. Stippled line represents Hs578Bst cells and solid line represents MCF7 cells. FIGS. 3C-F are histograms showing colony number versus treatment with DMSO or Capsaicin in the following cell lines: LNCaP (FIG. 3C), MCF7 (FIG. 3D), HepG2 (FIG. 3E), and HeLa (FIG. 3F). Cells were treated with 200 μM capsaicin for 24 h. Adherent cells were then collected and plated (1000 cells per 10 cm dish) for further incubation. The standard deviation of three dishes is shown as error bars. The experiment was reproduced twice. FIG. 3G is an autoradiograph of cell lysates HeLa, MCF7 and LNCaP treated with 200 μM capsaicin for 24 h; cell lysates were made and Western blotted for p62/SQSTM1 and LC3II. β-actin was used as a loading control. LNCaP cells were treated with 50, 100 and 200 μM capsaicin for 24 h. this experiment was reproduced twice. […] DMSO was used as a control.
Cells were grown in 6-well tissue culture plates to 60% confluence and treated with 200 μM capsaicin or DMSO control for 24 h. […] Cells were fixed with 6% Glutaraldehyde and 0.5% Crystal Violet, and colonies that contained 50 cells were counted. […]

LC3II and p62/SQSTM1 = assay: Western blotting of autophagy markers; type: cell-based
Hsp70 mRNA = assay: Gene expression assay (RT-PCR) of Hsp70 mRNA in MCF7 cells; type: cell-based
Hsp70 = Hsp70 (Homo sapiens, UniProt P0DMV8); assay: Fluorescence emission assay with purified Hsp70; type: binding; conditions: Hsp70 15 μM, capsaicin 7.5 μM, 1 h room temperature, excitation 266 nm
Experimental: (§3) FIG. 5A is a histogram showing the ratio of Hsp70 mRNA relative to β-actin in the presence of DMSO, 100 μM or 200 μM capsaicin (Cap) after RT-PCR. FIG. 5B is a graph of fluorescence emission spectra for capsaicin, Hsp70, Hsp70 with capsaicin (Hsp70+C), Hsp90, Hsp90 with capsaicin (Hsp90+C), Hsp40 and Hsp40 with capsaicin (Hsp40+C), at wavelengths between 290 and 440 nm. All chaperones were tested at 15 μM and capsaicin at 7.5 μM. Proteins were incubated for 1 h at room temp in the presence or absence of capsaicin. An excitation wavelength of 266 nm was used.
(§4) To determine the effect of molecular chaperones on the fluorescence emission of capsaicin, all chaperones were tested at 15 μM and capsaicin at 7.5 μM concentrations. Proteins were incubated for 1 h at room temperature in the presence or absence of capsaicin. A 96-well black plate and a SAFIRE-TECAN plate reader were used. The excitation wavelength was 266 nm.

Hsp90 = assay: Fluorescence emission assay with Hsp90; type: binding; conditions: Hsp90 15 μM, capsaicin 7.5 μM, excitation 266 nm
Experimental: as §3, §4

Hsp40 = assay: Fluorescence emission assay with Hsp40; type: binding; conditions: Hsp40 15 μM, capsaicin 7.5 μM, excitation 266 nm
Experimental: as §3, §4

[9] = biological target: T1, Hsp70 multi-chaperone complexes (Homo sapiens, UniProt P0DMV8); assay: Hsp70 complex pull-down and Western blotting in LNCaP cells; type: cell-based; conditions: 200 μM capsaicin, 6 h
T1 construct: endogenous in cells; host or cells: LNCaP
Experimental: as §1
FIG. 12 is an autoradiograph of LNCaP cells treated with 200 μM capsaicin for 6 h and then lysed and Western blotted for Hsp70, Hsp40 (HDJ-2), and Hsp90β. Capsaicin reduced Hsp40 and Hsp90 binding to Hsp70. Mouse IgG was used as a control.

MCF7 cells [10] = assay: Microscopy (light, transmission electron) of capsaicin-treated MCF7 cells; type: cell-based
[11] = in vivo; cited from earlier work
[12] = purified capsaicin; cited from earlier work
[13] = 5 mg/kg by gavage, three days per week for 2-4 weeks; cited from earlier work
[14] = preclinical data; cited from earlier work
[15] = tested on: HCT 116 colon cancer cells; conditions: cited from earlier work

T1 sequence (P0DMV8 2-641 limits assumed, one chain of several): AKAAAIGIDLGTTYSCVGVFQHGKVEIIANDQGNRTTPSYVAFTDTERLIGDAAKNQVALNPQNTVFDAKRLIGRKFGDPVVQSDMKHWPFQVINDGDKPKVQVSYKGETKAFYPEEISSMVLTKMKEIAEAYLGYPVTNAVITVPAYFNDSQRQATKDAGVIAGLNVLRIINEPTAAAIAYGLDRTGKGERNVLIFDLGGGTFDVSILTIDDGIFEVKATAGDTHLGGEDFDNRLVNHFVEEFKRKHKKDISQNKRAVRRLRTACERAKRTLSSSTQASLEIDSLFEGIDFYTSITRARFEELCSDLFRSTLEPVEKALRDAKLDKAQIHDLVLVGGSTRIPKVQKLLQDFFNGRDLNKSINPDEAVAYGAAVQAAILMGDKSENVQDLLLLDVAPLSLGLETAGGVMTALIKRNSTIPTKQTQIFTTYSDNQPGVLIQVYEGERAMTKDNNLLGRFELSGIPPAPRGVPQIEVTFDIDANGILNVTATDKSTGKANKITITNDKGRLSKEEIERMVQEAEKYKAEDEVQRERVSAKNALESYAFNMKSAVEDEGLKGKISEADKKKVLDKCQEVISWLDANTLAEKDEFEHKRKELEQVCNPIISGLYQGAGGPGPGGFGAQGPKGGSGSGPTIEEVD
Hsp70, sequence (P0DMV8 2-641 limits assumed): as the sequence (P0DMV8 2-641 limits assumed, one chain of several) above

Compound: C=CCNC1=C2C[C@@H](C)C[C@H](OC)[C@H](O)[C@@H](C)/C=C(\C)[C@H](OC(N)=O)[C@@H](OC)/C=C\C=C(/C)C(=O)NC(=CC1=O)C2=O [17-AAG, 17-allylamino-17-demethoxygeldanamycin]
- cell killing (relative survival) (LNCaP cells): very little effect or no effect
- cytotoxicity (cell survival) (MCF7 cells [1]): minimal cytotoxicity
- GI50 (NCI 60-cell panel): 120 nM
- IC50 ([2]; Hsp90 from HER-2 overexpressing cells or BT474 breast carcinoma cells): 5 to 6 nM
- higher affinity for Hsp90 derived from transformed cells ([2]; relative to non-tumor cells): more than 100 ×

Compound: COc1cc(CNC(=O)CCCC/C=C/C(C)C)ccc1O [capsaicin, 8-Methyl-N-vanillyl-trans-6-nonenamide]
- blocking the hormone-binding activity of PR ([3]; rescreened in triplicates at 20 μM final concentration): about 40%
- modulation of the Hsp90 chaperoning activity ([3]; screen of NIH Clinical Collection library (FIG. 1)): efficient and reproducible modulation
- cellular degradation of Hsp90 client proteins [4]: caused cellular degradation
- expression level of molecular chaperones Hsp90α, Hsp90β, Hsp40, p23 and Hop [5]: did not affect
- level of Hsp70 ([6]; HeLa and MCF7 cells): reduced the level of Hsp70
- degradation of Hsp70 ([6]; HeLa, LNCaP, MCF7, Hs578T and MDA-MB-231, 24 h): reproducibly caused degradation
- level of Hsp70 after 6 h of treatment ([6]; LNCaP cells, 200 μM capsaicin, 6 h (FIG. 12)): not significantly down
- stabilization of Hsp70 protein by autophagy inhibitor 3MA ([6]; capsaicin 200 μM (alone or with 17-AAG) plus 3MA 5 mM, 6 h): almost fully stabilizes
- rescue of Hsp70 protein by proteasome inhibitor MG132 ([6]; capsaicin 200 μM plus MG132 20 μM, 6 h): does not rescue
- Hsp70 protein level ([6]; capsaicin 200 μM, 17-AAG 200 nM (FIG. 7C)): decreased
- level of Hsc70 [7]: did not change
- cell killing (relative survival) (LNCaP cells): very little effect or no effect
- ability of cancer cells to form colonies [8]: efficiently reduces
- LC3II modification (LC3II and p62/SQSTM1; HeLa cells, 200 μM capsaicin 24 h): no LC3II modification
- LC3B modification (LC3II and p62/SQSTM1; LNCaP cells, 50, 100, 200 μM capsaicin 24 h): concentration-dependent induction
- LC3II levels (LC3II and p62/SQSTM1; MCF7 and LNCaP cells, 200 μM capsaicin 24 h): significantly increased
- p62/SQSTM1 protein level (LC3II and p62/SQSTM1; capsaicin treatment, Western blot): accumulation
- level of Hsp70 mRNA (Hsp70 mRNA; 100 or 200 μM capsaicin, 24 h (FIG. 5A)): No change
- level of Hsp70 mRNA (Hsp70 mRNA; capsaicin 200 μM, 17-AAG 200 nM (FIG. 7A)): slightly increased
- capsaicin fluorescence emission in presence of Hsp70 (Hsp70): completely quenched
- capsaicin fluorescence emission in presence of Hsp90 (Hsp90): may not significantly change
- capsaicin fluorescence emission in presence of Hsp40 (Hsp40): may not significantly change
- Hsp40 and Hsp90 binding to Hsp70 [9]: reduced
- mitophagy (MCF7 cells [10]): induced mitophagy
- cell death of MCF7 cancer cells (MCF7 cells [1]): caused cell death
- cytotoxicity (cell survival) (MCF7 cells [1]): minimal cytotoxicity
- pharmacokinetic half-life [11]: approximately 24 hours
- solubility in alcohol, fats and oils [12]: freely soluble
- solubility in cold water [12]: insoluble
- toxicity symptoms [13]: No toxicity symptoms were observed

Compound: CC(C)c1cc(-c2n[nH]c(=O)n2-c2ccc3c(ccn3C)c2)c(O)cc1O [Ganetespib]
- cardiac or liver toxicity [14]: no evidence of cardiac or liver toxicity

Compound: COc1cc(CNC(=O)CCCCCCC(C)C)ccc1O [dihydrocapsaicin]
- mitoautophagy [15]: induces mitoautophagy

Compound: CO[C@H]1/C=C\C=C(/C)C(=O)NC2=CC(=O)C(NCCN(C)C)=C(C[C@@H](C)C[C@H](OC)[C@H](O)[C@@H](C)/C=C(\C)[C@@H]1OC(N)=O)C2=O [17-DMAG, 17-Dimethylaminoethylamino-17-demethoxygeldanamycin]
- GI50 (NCI 60-cell panel): 51 nM
